# Laboratory results as given in patent US10420758B2, “Indolinyl-sulfonamide inhibitors of tankyrase and methods of use thereof” (The Board of Regents of the University of Texas System, priority 2015, dated 2019).
# What was measured:
# Type in all cases: biochemical
# PARP10 = biological target: T1, PARP10 (Homo sapiens, UniProt Q53GL7); test: PARP profiling, parsylation of immobilized histone
# T1 sequence (Q53GL7 1-1025): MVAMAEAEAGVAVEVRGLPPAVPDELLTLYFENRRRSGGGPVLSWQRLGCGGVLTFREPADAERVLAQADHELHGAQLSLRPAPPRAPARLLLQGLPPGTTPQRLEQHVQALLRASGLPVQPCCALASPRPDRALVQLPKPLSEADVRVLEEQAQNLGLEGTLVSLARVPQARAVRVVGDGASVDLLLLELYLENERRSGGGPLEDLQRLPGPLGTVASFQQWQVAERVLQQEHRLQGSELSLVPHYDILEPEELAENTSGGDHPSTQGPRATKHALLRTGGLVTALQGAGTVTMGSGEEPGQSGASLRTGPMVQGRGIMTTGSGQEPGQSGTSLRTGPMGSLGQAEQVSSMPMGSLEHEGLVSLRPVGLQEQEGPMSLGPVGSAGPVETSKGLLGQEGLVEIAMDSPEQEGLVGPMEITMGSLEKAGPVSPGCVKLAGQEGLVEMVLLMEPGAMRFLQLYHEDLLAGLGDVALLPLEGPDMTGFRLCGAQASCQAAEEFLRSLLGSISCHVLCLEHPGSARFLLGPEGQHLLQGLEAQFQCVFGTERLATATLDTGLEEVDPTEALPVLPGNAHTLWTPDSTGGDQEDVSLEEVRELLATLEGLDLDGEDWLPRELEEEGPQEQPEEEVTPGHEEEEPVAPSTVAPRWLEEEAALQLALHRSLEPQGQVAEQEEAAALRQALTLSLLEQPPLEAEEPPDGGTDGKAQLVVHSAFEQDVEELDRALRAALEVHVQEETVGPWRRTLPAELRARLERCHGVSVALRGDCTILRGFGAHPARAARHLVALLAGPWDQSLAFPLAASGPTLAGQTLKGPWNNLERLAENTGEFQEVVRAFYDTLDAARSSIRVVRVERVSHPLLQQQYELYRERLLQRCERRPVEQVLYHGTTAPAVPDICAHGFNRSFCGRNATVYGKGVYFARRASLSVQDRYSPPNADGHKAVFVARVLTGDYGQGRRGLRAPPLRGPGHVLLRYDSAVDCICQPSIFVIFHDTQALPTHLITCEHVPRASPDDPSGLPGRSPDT
# Description: (§1) Performed by BPS Bioscience Inc., San Diego by following the BPS PARP or TNKS assay kit protocols. The enzymatic reactions were conducted in duplicate at room temperature for 1 hr in a 96 well plate coated with histone substrate. […] of reaction buffer (Tris.HCl, pH 8.0) contains NAD^+, biotinylated NAD^+, activated DNA, recombinant PARP enzyme and 10 μM of the test compound. […] After enzymatic reactions, 50 μL of Streptavidin-horseradish peroxidase was added to each well and the plate was incubated at room temperature for an additional 30 min. 100 μL of developer reagents were added to wells and luminescence was measured using a BioTek Synergy™ 2 microplate reader.
# PARP15 = biological target: T2, PARP15 (Homo sapiens, UniProt Q460N3); test: PARP profiling, parsylation of immobilized histone
# T2 sequence (Q460N3 1-678): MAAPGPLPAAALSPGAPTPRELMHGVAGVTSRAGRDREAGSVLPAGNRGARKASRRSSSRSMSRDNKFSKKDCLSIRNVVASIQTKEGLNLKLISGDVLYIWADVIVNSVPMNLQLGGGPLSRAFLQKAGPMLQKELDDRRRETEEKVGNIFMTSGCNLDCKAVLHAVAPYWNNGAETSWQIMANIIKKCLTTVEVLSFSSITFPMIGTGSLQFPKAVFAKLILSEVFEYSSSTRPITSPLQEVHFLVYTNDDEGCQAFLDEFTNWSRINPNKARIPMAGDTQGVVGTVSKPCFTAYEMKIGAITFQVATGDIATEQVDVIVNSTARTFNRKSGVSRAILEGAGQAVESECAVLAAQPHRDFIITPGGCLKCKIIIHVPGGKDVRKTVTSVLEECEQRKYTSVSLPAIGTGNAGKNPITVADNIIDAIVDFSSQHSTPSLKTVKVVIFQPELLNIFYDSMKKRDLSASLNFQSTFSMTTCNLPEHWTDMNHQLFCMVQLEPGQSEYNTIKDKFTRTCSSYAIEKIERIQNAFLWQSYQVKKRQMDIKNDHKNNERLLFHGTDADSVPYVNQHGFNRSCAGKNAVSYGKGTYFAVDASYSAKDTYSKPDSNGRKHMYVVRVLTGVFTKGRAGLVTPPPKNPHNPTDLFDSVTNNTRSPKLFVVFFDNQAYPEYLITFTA
# Description: as §1
# [1] = test system: panel of recombinant PARP proteins; test: Overall specificity in panel of recombinant PARP proteins; conditions: 10 μM, panel covers 70% of the protein family
# Description: as §1
# The higher level of conservation between the NI-binding pocket in PARPs as compared to the AD-binding pocket likely imposes greater challenges to achieving specificity with NI-binding pocket inhibitors (Wahlberg, et al., 2012). […] At the same time, the discovery of structurally distinct chemicals both capable of binding the AD-binding pocket in a similar fashion (IWR-1 and IWR-8) afforded an opportunity to evaluate the strength of this hypothesis.
SMILES,% inhibition (PARP10; IWR compounds 10 μM) [%],% inhibition (PARP15; IWR compounds 10 μM) [%],specificity/selectivity across PARP panel [1],inhibition at 10 µM (PARP10; IWR compounds 10 μM) [%],inhibition at 10 µM (PARP15; IWR compounds 10 μM) [%],inhibition at 0.02 µM (PARP10) [%],inhibition at 0.02 µM (PARP15) [%]
O=C(Nc1cccc2cccnc12)c1ccc(N2C(=O)[C@@H]3[C@H](C2=O)[C@@H]2C=C[C@H]3C2)cc1 [IWR-1],18,0,highly specific,–,–,–,–
CCN(C(=O)C1CCN(S(=O)(=O)c2cc3c(cc2Br)CCN3C(C)=O)CC1)c1cccc(C)c1 [IWR-8],–,–,highly specific,9,0,–,–
O=C(c1cc(Cc2n[nH]c(=O)c3ccccc23)ccc1F)N1CCN(C(=O)C2CC2)CC1 [Olaparib],–,–,–,–,–,99,82
